Series [1] has as its system "late phase" eosinophilia in the BAL. Kind of series: Inhibition of the "late phase" eosinophilia in the BAL 24 hours after allergen challenge in guinea pigs. The series is classed as in vivo. The procedure:
Inhibition of the “Late Phase” eosinophilia in the BAL 24 Hours after Allergen Challenge in Guinea Pigs
Male guinea pigs (200-250 g, Dunkin Hartley Shoe) were actively sensitized subcutaneously with ovalbumin (10 μg of ovalbumin+1 mg of Al(OH)3) and boosted 2 weeks later. One week after boosting with ovalbumin, the animals were exposed to an inhalation challenge with ovalbumin (0.5% strength solution) for 20-30 seconds. 24 hours later, the animals were killed by means of an overdose of urethane, exsanguinated and a bronchoalveolar lavage (BAL) was carried out using 2×5 ml of 0.9% strength physiological saline solution.
The lavage fluid was collected and centrifuged at 400 g for 10 minutes, and the pellets were suspended in 1 ml of 0.9% strength physiological saline solution. The eosinophils were counted microscopically in a Neubauer chamber after staining by means of Becton Dickinson test kit No. 5877. This test kit contains Phloxin B as a selective stain for eosinophils. The eosinophils in the BAL was [sic] counted here for each animal and expressed as eosinophils (millions/animal). For each group the mean value and standard deviation were determined. The percentage inhibition of eosinophilia for the group treated with test substance was calculated according to the following formula: (A−B)−(B−C)/(A−C)×100=% inhibition in this formula A eosinophils correspond to the untreated challenge group, B eosinophils to the treated group and C eosinophils to the unchallenged control group.
The animals were treated with a histamine H1 antagonist (azelastine; 0.01 mg/kg p.o.) 2 hours before allergen challenge to avoid death. The administration of the test substances or of the vehicle was carried out 4 hours after allergen challenge.

The target of a further series is recombinant human Cyp B (Homo sapiens, UniProt P23284). Nature of the series: Peptidylprolyl isomerase (PPIase) activity inhibition assay. The series is classed as biochemical. As to conditions: Cyp B incubated with 1 μM substance for 15 min, 10° C. The procedure: Assays for the Determination of Peptidylprolyl Isomerase (PPIase) Activity and Inhibition
Sequence of recombinant human Cyp B (P23284 34-216): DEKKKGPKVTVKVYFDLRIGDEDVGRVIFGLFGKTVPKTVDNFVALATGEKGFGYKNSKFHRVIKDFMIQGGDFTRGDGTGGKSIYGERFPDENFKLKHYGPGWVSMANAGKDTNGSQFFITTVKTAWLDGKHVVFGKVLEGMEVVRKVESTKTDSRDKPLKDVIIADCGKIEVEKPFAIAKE
The PPIase activity of the cyclophilins was measured enzymatically according to Fischer et al. (1984). After isomerization of the substrate by the peptidyl prolyl isomerase, this is accessible to chymotrypsin, which cleaves the chromophore p-nitroaniline. For the determination of inhibition of the PPIase activity by substance, recombinant human Cyp B was used. The interaction of Cyp B with a potential inhibitor was carried out as follows:
A certain concentration of purified Cyp B was incubated with 1 μM substance for 15 min. The PPIase reaction was started by addition of the substrate solution to the reaction mixture which contains HEPES buffer, chymotrypsin and either test or control samples. Under these conditions, first-order kinetics were obtained with a constant Kobserved=K0+Kenz, where K0 is the spontaneous isomerization and Kenz is the rate of isomerization of the PPIase activity. The extinction values which correspond to the amount of the chromophore cleaved were measured using a Beckman DU 70 spectrophotometer at a constant reaction temperature of 10° C.
The observed residual activity in the presence of various substances was compared with the cyclophilins only treated with solvent. The results were given in % residual activity. Cyclosporin A (CsA) was used as the reference compound. […]

Series [2] concerns CD3-induced IL-2 production. Nature of the series: Inhibition of CD3-induced IL-2 production. It counts as cell-based.
A further series relates to lymphoproliferation. Kind of series: Inhibition of lymphoproliferation (colorimetric MTT assay). It counts as cell-based. An excerpt: Colorimetric Assay (Based on the MTT Test) for the Non-Radioactive Quantification of Cell Proliferation and Survival Ability
MTT is used for the quantitative determination of cell proliferation and activation, for example, in the reaction on growth factors and cytokines such as IL-2 and IL-4 and also for the quantification of the antiproliferative or toxic effects.
The assay is based on the cleavage of yellow tetrazolium salt MTT to give purple-red formazan crystals by metabolically active cells.
The cells, cultured in a 96-hole tissue culture plate, are incubated for about 4 h with yellow MTT solution. After this incubation time, purple-red formazan salt crystals are formed. These salt crystals are insoluble in aqueous solutions, but can be dissolved by addition of solubilizer and by incubation of the plates overnight.
The dissolved formazan product is quantified spectrophotometrically using an ELISA reader. An increase in the number of living cells results in an increase in the total metabolic activity in the sample. This increase correlates directly with the amount of the purple-red formazan crystals formed, which are [sic] measured by the absorption.
(In general: Tetrazolium assays rely on reduction of a dye to a coloured formazan, in cell work by metabolically active cells.)

We go through one molecule from US6919344B2, “N-substituted indole-3-glyoxylamides having anti-asthmatic, antiallergic and immunosuppressant/immuno-modulating action” (ASTA MEDICA, Aktiengesellschaft, priority 1996, dated 2005).

The inhibition is the percentage by which the read-out fell short of the control. Higher therefore signals strong suppression.

With `O=C(Nc1ccncc1)C(=O)c1cn(Cc2ccc(F)cc2)c2ccccc12` [Ex. 1, N-(Pyridin-4-yl)-[1-(4-fluorobenzyl)indol-3-yl]glyoxylamide], the “% Inhibition of the "late phase" eosinophilia 24 h after allergen challenge” value in series [1] (5 mg/kg i.p. + 4 h after allergen challenge) is listed as 27.8%; in series [1] (10 mg/kg i.p. + 4 h after allergen challenge) it was 55.4%; in series [1] (30 mg/kg p.o. + 4 h after allergen challenge), 56.1%. In addition, the “Inhibition of PPIase activity” value on recombinant human Cyp B is recorded as 80-100%. Also, the inhibition at 0.1 µM in series [2] (Conc. 0.1 μM) stood at 34%; with lymphoproliferation (Conc. 0.1 μM), 18%. For the same molecule, the inhibition at 1 µM in series [2] (Conc. 1 μM) amounted to 72%; with lymphoproliferation (Conc. 1 μM) it was 39%. Besides, the inhibition at 10 µM in series [2] (Conc. 10 μM) amounted to 95%; with lymphoproliferation (Conc. 10 μM), 61%.
